{
  "source": "paper PMC3914206",
  "data": [
    {"molecular_target": "T1, panel of 442 kinases (Homo sapiens, UniProt O75747)", "T1 construct": "purchased KINOMEscan", "T1 sequence (O75747 1-1486)": "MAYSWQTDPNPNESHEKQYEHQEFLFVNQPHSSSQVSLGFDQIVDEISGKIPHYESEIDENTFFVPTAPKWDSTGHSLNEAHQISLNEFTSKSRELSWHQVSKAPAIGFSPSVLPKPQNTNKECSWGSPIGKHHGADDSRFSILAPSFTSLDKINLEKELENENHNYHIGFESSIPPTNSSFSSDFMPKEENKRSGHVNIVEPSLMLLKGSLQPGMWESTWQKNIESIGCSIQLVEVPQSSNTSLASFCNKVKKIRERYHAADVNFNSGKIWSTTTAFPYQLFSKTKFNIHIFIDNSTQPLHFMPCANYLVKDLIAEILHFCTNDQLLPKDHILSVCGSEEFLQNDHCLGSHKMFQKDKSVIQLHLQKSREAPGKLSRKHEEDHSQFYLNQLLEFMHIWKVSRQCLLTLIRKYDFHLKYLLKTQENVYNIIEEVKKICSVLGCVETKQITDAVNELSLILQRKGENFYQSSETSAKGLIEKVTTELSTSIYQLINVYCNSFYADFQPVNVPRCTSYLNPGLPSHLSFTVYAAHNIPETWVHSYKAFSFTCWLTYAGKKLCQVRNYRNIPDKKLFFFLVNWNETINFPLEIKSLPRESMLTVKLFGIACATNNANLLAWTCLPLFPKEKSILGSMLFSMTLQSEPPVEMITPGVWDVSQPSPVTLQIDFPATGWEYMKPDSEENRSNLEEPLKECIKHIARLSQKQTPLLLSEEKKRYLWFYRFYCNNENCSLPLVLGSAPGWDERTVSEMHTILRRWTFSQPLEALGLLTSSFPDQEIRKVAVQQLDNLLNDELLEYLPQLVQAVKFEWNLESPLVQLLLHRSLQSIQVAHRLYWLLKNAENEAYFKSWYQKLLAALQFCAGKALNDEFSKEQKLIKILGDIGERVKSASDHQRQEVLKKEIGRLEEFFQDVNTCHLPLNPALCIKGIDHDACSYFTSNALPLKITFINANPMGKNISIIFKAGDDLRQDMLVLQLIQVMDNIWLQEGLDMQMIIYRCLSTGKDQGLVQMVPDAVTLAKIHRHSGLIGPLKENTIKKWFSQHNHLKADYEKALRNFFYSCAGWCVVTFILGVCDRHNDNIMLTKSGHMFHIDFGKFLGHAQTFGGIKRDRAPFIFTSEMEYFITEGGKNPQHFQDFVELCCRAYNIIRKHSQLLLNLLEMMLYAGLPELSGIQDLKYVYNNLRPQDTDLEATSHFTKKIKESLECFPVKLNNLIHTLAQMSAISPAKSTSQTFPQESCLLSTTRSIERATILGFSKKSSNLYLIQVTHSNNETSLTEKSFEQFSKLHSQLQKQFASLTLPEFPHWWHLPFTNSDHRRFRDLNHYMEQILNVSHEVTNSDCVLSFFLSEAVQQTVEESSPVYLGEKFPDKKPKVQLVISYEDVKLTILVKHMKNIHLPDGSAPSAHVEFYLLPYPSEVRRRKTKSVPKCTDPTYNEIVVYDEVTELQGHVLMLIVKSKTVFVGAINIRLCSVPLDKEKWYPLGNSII", "assay_type": "binding", "conditions": "Compound Concentration 10 µM", "description": "We assessed the selectivity of members of this scaffold using the KINOMEscan methodology across a near comprehensive panel of 442 kinases [[18,27]].", "values": [
      {"smiles": "COc1cc(C(=O)N2CCC(N3CCN(C)CC3)CC2)ccc1Nc1ncc2c(n1)N(C1CCCC1)c1ccccc1C(=O)N2C", "note": "[Compound 25, 11-cyclopentyl-2-((2-methoxy-4-(4-(4-methylpiperazin-1-yl)piperidine-1-carbonyl)phenyl)amino)-5-methyl-5H-benzo[e]pyrimido[5,4-b][1,4]diazepin-6(11H)-one]", "KINOMEscan: PIK3C2G": 100},
      {"smiles": "CCOc1cc(C(=O)N2CCC(N3CCN(C)CC3)CC2)ccc1Nc1ncc2c(n1)N(C1CCCC1)c1ccccc1C(=O)N2C", "note": "[Compound 26]", "KINOMEscan: PIK3C2G": 99},
      {"smiles": "COc1cc(C(=O)N2CCC(N3CCN(C)CC3)CC2)ccc1Nc1ncc2c(n1)N(C)c1ccccc1C(=O)N2C", "note": "[15 (LRRK2-IN-1)]", "KINOMEscan: PIK3C2G": 100}
    ]}
  ]
}
